PMC10256842, “Empowering drug off-target discovery with metabolic and structural analysis” (Nature Communications, 2023)

Molecular target: T1, HPPK (6-Hydroxymethyl-7,8-dihydropterin pyrophosphokinase) (Escherichia coli, UniProt P26281)
T1 construct: gene folK; recombinant HPPK from pET28A, Ni-NTA purified
T1 sequence (P26281 2-159): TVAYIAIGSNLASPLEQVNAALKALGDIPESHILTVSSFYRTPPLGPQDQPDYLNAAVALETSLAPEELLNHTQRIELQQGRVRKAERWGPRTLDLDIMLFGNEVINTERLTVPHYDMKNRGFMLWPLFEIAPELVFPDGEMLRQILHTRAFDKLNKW
Assay: KinaseGlo luminescence ATP-depletion assay; substrate starts the reaction and relieves CD15-3 inhibition
Format: biochemical

Nc1nc2c(c(=O)[nH]1)N=C(CO)CN2 [6-Hydroxymethyl-7,8-dihydropterin]
KinaseGlo luminescence ATP-depletion assay; substrate starts the reaction and re: HPPK reaction was initiated with the introduction of the substrate, 6-Hydroxymethyl-7,8-dihydropterin in the assay buffer
